Experimental findings from patent publication US20230135945A1, “Method for Measuring Modulation in the Activity of a G Protein-Coupled Receptor” (CISBIO BIOASSAYS, priority 2017, published 2023) are described below.

“Also recorded” adds a separate entry of the source. Where no end group is shown, it is not given here.

Test [1] has as its target T1, Delta Opioid GPCR (Homo sapiens, UniProt P41143).
T1 construct: purchased Perkin Elmer 6110549400UA (HEK293)
Kind of test: Activation test according to format 2B (TR-FRET, full Galpha bound to GTPγS vs empty form), membranes expressing Delta Opioid GPCR and Galphai protein. It counts as biochemical. The following applies: for TR-FRET signal (HTRF ratio), inhibition of agonist activation by antagonist: SNC162 fixed 10 nM. As for the experimental part:
All reagents were diluted in TrisHCl 50 mM pH 7.4, MgCl2 10 mM, NaCl 10 mM, BSA 0.1% buffer. The membranes were prepared 4× to distribute 1 μg/well (except for other specifications). The GDP, GTP or GTPγS nucleotides and test compounds (agonists or antagonists) were pre-mixed and prepared 4× to obtain the final concentrations in the wells mentioned in the graphs. All anti-Galphai reagents used for detection were prepared 4× to target the following final concentrations in the following wells: sdAbs-d2 (50 nM); antibody SC13533-d2 (0.1 nM); antibody SC13533-Lumi4Tb (0.25 nM); antibody DSV36S-d2 (0.1 nM); antibody DSV36S-Lumi4Tb (0.25 nM); antibody DSV3S-d2 (10 nM); antibody DSV39S-d2 (10 nM); antibody DSV26S-Lumi4Tb (0.25 nM); peptide KB1753-Biotin (50 nM) in combination with streptavidin-XL665 (SA-XL) (25 nM) (pre-incubated 30 minutes at room temperature before distribution in plates). • Distribution of reagents in the 384-well plates: • Membranes expressing GPCR and G protein: 5 μL • Nucleotides (GDP or GTP or GTPγS) ±Test compounds (agonists and/or antagonists): 5 μL • Anti-Galphai-acceptor ligand (d2 or XL665): 5 μL • Anti-Galphai-donor ligand (Lumi4Tb): 5 μL
(§1) The plates were incubated at 21° C. for 3 h or 20 h and then the HTRF signal was measured on the PHERAstar reader (BMG Labtech) with the following configuration: • Module: HTRF (Excitation 337nm, Emission 665nm and 620nm) • Excitation: laser, 40 flashes • Reading window: delays: 60 μs—Integration: 400 μs
After activation of GPCR and Galpha protein by a GPCR agonist, the decrease in the proportion of the full Galpha protein form bound to GTP or bound to GTPγS (due to an increase in the proportion of the empty Galpha protein form) is specifically detected using two ligands labeled with RET partners. Activation of GPCR results in a decrease in the RET signal.
In a second step, the ability of a GPCR agonist to modulate the proportion of Galpha protein in empty form was tested with the same membranes and detection ligand pairs. HEK293 cell membranes expressing Delta Opioid GPCR and Galphai protein were incubated with GTPγS (10 nM) and GPCR agonist (SNC162) in increasing concentration. […] In a second condition, activation with a fixed concentration of GPCR agonist SNC162 (10 nM) was inhibited by an increasing concentration of GPCR antagonist (Naltrindole).
On the other hand, membranes (10 μg/wells) of HEK293 or CHO-K1 cells expressing the Delta Opioid GPCR and Galphai protein were incubated with GTPγS (100 nM) alone or in combination with a saturated fixed concentration (1 μM) of the receptor agonist (SNC162).
In a first condition, HEK293 cell membranes expressing Delta Opioid GPCR and Galphai protein were incubated with GTPγS (10 nM) and a GPCR agonist (SNC162) in increasing concentration.
A general note: In TR-FRET formats the signal depends on donor and acceptor labels being close together.

In test [2] the target is T1, Delta Opioid GPCR. Kind of test: Activation test according to format 2A (TR-FRET, empty Galpha vs GTP/GTPγS-bound full form), HEK293 membranes. The test is classed as biochemical.
The target in test [3] is T1, Delta Opioid GPCR. As to the kind of experiment: Activation test according to format 1A (TR-FRET, empty Galpha vs GDP-bound full form), HEK293 membranes. The following applies: GDP 10 μM. It counts as biochemical. As for the experimental part: (§2) All reagents were diluted in TrisHCl 50 mM pH 7.4, MgCl2 10 mM, NaCl 10 mM, BSA 0.1% buffer. The membranes were prepared 4× to distribute 1 μg/well (except for other specifications). The GDP, GTP or GTPγS nucleotides and test compounds (agonists or antagonists) were pre-mixed and prepared 4× to obtain the final concentrations in the wells mentioned in the graphs. […]
The plates were incubated at 21° C. for 3 h or 20 h and then the HTRF signal was measured on the PHERAstar reader (BMG Labtech) with the following configuration: • Module: HTRF (Excitation 337nm, Emission 665nm and 620nm) • Excitation: laser, 40 flashes • Reading window: delays: 60 μs—Integration: 400 μs […]

The next test concerns the target T2, 5HT1A (Homo sapiens, UniProt P08908).
T2 construct: purchased Perkin Elmer RBHS1AM400UA; host or cells: HEK293-EBNA
T2 sequence (P08908 1-422): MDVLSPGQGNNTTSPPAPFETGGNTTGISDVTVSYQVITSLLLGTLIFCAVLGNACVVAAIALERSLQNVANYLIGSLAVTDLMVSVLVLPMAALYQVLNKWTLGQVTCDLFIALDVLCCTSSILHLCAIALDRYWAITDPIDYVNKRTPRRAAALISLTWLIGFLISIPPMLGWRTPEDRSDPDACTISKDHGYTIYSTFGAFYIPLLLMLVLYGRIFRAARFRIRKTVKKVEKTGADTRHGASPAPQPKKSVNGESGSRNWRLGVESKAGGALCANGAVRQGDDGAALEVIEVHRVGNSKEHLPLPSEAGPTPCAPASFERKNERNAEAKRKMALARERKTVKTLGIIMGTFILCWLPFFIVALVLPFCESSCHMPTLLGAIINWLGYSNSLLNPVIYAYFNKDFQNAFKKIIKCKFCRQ
Kind of test: Activation test format 2B on 5HT1A membranes (Example 7). The test is classed as biochemical. The following applies: HEK293 membranes 10 μg/well, GTPγS 100 nM, agonist 1 μM (FIG. 10). On the procedure:
as §2, §1

In a further test the test system is Galpha protein. As to the kind of experiment: Binding specificity of detection ligands for the forms of the Galpha protein. On the procedure:
In order to evaluate the selectivity of antibodies between the different forms of the Galphai1 protein (GDP-bound full form vs. GTPgS-bound full form vs. empty form), the test was performed in parallel on TST-Galphai1 protein conditions pre-incubated in the buffer containing either GDP at 1 μM, GTPgS at 1 μM or no nucleotide. The best hybridomas were then cloned with a limit dilution step to obtain hybridoma clones.
• the anti-Galphai antibody SC13533 was purchased from Santa Cruz Biotechnology (catalogue number SC13533). […] The antibodies were labeled with compatible fluorescent probes for TR-FRET detection (red—d2 acceptor or Lumi4Tb donor).

T1 sequence (P41143 whole entry): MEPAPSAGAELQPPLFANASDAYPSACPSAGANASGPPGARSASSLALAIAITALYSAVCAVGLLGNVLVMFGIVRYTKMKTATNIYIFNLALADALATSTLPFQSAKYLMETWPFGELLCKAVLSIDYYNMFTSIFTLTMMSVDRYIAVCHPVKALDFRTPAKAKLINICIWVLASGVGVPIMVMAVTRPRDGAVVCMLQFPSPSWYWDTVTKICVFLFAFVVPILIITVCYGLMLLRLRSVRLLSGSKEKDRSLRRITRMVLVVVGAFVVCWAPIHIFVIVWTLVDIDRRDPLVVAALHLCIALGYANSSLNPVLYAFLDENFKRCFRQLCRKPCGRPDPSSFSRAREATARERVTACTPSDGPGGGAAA

Turning to `Oc1ccc2c3c1O[C@H]1c4[nH]c5ccccc5c4C[C@@]4(O)[C@@H](C2)N(CC2CC2)CC[C@]314` [Naltrindole], the “TR-FRET signal (HTRF ratio), inhibition of agonist activation by antagonist” value is given as “increase in the TR-FRET signal” on Delta Opioid GPCR [1] (Example 9, format 2B, GTPγS 10 nM, antagonist in increasing concentration (FIG. 12B)); “increase in the TR-FRET signal” on Delta Opioid GPCR [1] (Example 10, format 2B, GTPγS 10 nM, antagonist in increasing concentration, FIGS. 13B-18B); “increase in the TR-FRET signal” at Delta Opioid GPCR [1] (format 2B, HEK293 membranes, GTPγS 10 nM, antagonist in increasing concentration, Examples 1-3); “decrease in the TR-FRET signal” at Delta Opioid GPCR [2] (GTPγS 10 nM, SNC162 fixed 10 nM, antagonist in increasing concentration (FIG. 9B)); “decrease in the TR-FRET signal” on Delta Opioid GPCR [3] (SNC162 fixed 10 nM, antagonist in increasing concentration (FIG. 8B)).

In the case of `C=CCN1C[C@H](C)N([C@@H](c2ccccc2)c2ccc(C(=O)N(CC)CC)cc2)C[C@H]1C` [SNC162], the “TR-FRET signal (HTRF ratio) generated by stimulation with the agonist” value is listed as “decrease in the TR-FRET signal” on Delta Opioid GPCR [1] (Example 7, CHO-K1 membranes 10 μg/well, GTPγS 100 nM, agonist 1 μM (FIG. 10)); “decrease in the TR-FRET signal” at Delta Opioid GPCR [1] (Example 9, format 2B, GTPγS 10 nM, agonist in increasing concentration, DSV36S-Lumi4Tb/SC13533-d2 (FIG. 12B)); “decrease in the TR-FRET signal” at Delta Opioid GPCR [1] (Example 10, format 2B, GTPγS 10 nM, agonist in increasing concentration, sdAb-d2 ligand pairs (FIGS. 13B-19B)); “decrease in the TR-FRET signal” at Delta Opioid GPCR [1] (format 2B, HEK293 membranes, GTPγS 10 nM, agonist in increasing concentration, detection ligand pairs of Examples 1-4 (FIGS. 4B-7B)); “increase in the TR-FRET signal” at Delta Opioid GPCR [2] (Example 8, GTP 50, 1000 or 20000 nM, agonist 1 μM, membranes 1 μg/well, amplitude lower than with GTPγS (FIG. 11)); “increase in the TR-FRET signal” on Delta Opioid GPCR [2] (Example 8, GTPγS 50, 1000 or 20000 nM, agonist 1 μM, membranes 1 μg/well (FIG. 11)). Moreover, the “TR-FRET signal (HTRF ratio) generated by stimulation with the agonist” value on Delta Opioid GPCR [2] (GTPγS 10 nM, agonist in increasing concentration, DSV39S-d2 + DSV26S-Lumi4Tb (FIG. 9B)) is “increase in the TR-FRET signal”; on Delta Opioid GPCR [3] (agonist in increasing concentration, DSV39S-d2 + DSV26S-Lumi4Tb (FIG. 8B)), “increase in the TR-FRET signal”. On Delta Opioid GPCR [1] (Example 7, HEK293 membranes 10 μg/well, GTPγS 100 nM, agonist 1 μM, KB1753-biotin/SA-XL + SC13533-Lumi4Tb (FIG. 10)), the “TR-FRET signal (HTRF ratio) generated by stimulation with the receptor agonist” value is given as “decrease in the TR-FRET signal”.

For `NCCc1c[nH]c2ccc(O)cc12` [serotonin], the “TR-FRET signal (HTRF ratio) generated by stimulation with the receptor agonist” value at 5HT1A is reported as “decrease in the TR-FRET signal”.

For “Ser-Ser-Arg-Gly-Tyr-Tyr-His-Gly-Ile-Trp-Val-Gly-Glu-Glu-Gly-Arg-Leu-Ser-Arg (SSRGYYHGIWVGEEGRLSR; also: biotinylated, place not given here) [KB1753, biotinylated form generated by Cisbio Bioassays]”, the “Form of the Galpha protein specifically bound (empty, GDP-bound, GTP/non-hydrolyzable GTP-bound)” value with Galpha protein was “specifically binds the form of the Galpha GTP or GTP protein that is non-hydrolyzable or slowly hydrolyzable relative to the forms of the empty Galpha protein and GDP; also recorded: specifically recognizes the full Galpha protein bound to GTP”.

B1: DSV36S: anti-Galphai antibody generated by Cisbio Bioassays (antibody, V domains shown)
VH: EVQLQQSGAELVRPGALVKLSCKASGFNIKDYYMHWVKQRPEQGLEWIGWIDPENGNTIYDPKFQGKASITADTSSNTAYLQLSSLTSEDTAVYYCTRGGGYYSDWYFDVWGAGTTVTVSS
VL: QIVLTQSPAIMSASPGEKVTMTCSASSSVSYMHWYQQKSGTSPKRWIYDTSKLASGVPARFSGSGSGTSYSLTISSMEAEDAATYYCQQWSSNPPITFGAGTKLELK
Take B1: the “Form of the Galpha protein specifically bound (empty, GDP-bound, GTP/non-hydrolyzable GTP-bound)” value in the test on Galpha protein is “specifically binds the form of the Galpha GTP or GTP protein that is non-hydrolyzable or slowly hydrolyzable relative to the forms of the empty Galpha protein and GDP”.
